Measured values taken from patent US20170105979A1, “USE OF A TORASEMIDE-BASED VETERINARY COMPOSITION FOR LOW-DOSE ADMINISTERING” (VIRBAC, priority 2014, published 2017).
Read-outs that look alike come from different tables or passages of the source.

Columns and labels:
[1] = prolonged treatments of 14 days; torasemide 0.4 mg/kg/day; cited from earlier work
[2] = cited from earlier work
[3] = 7 days, cited from earlier work; for clinical state of the disease: furosemide 5.13 mg/kg/day or torasemide 0.5 mg/kg/day, oral twice-daily
[4] = water consumption over 24 h in treated healthy dogs; assay type: in vivo, female Beagle dogs; details: FIG. 4
Protocol: (§1) Several criteria were evaluated in order to determine the efficacy of this dosage: • urine volume • water consumption • urinary sodium clearance • urinary potassium clearance • osmolar clearance • free-water clearance • urinary fraction excretion of sodium • urinary fraction excretion of potassium. […] The following measurements are carried out: • →urine: volume, pH, creatinine, osmolarity, sodium, potassium; • →plasma: sodium, potassium, urea, aldosterone.

[5] = single administration, healthy rats and dogs; cited from earlier work
[6] = urine volume over 24 h in treated healthy dogs; assay type: in vivo, female Beagle dogs; details: FIG. 3
Protocol: as §1

[7] = plasma creatinine and creatinine clearance (innocuousness); assay type: in vivo, female Beagle dogs; details: torasemide 0.05 mg/kg/day
Protocol: Other criteria were evaluated in order to determine the safety of this dosage: • plasma creatinine • creatinine clearance • plasma urea • plasma aldosterone. […] The following measurements are carried out: • →urine: volume, pH, creatinine, osmolarity, sodium, potassium; • →plasma: sodium, potassium, urea, aldosterone.

[8] = plasma urea concentration (innocuousness); assay type: in vivo, female Beagle dogs; details: FIG. 7
[9] = urinary fractional excretion of sodium (FENa) in healthy dogs; assay type: in vivo, female Beagle dogs; details: single (0.05 or 0.5 mg/kg) and repeated administrations for three weeks; FIGS. 9 and 10
Excerpt: One of the solutions for making the link between clinical and experimental is the calculation of the fractional excretion of sodium. This value is the ratio of the urinary sodium clearance to the urinary creatinine clearance. It requires assaying the creatinine in the plasma and in the urine, and also assaying the sodium in the plasma and the urine also, which is entirely envisionable “in the field”. This fractional excretion of sodium (FENa) represents the percentage of sodium filtered by the kidney that is finally excreted in the urine. It is determined using equation 1 below: where Naurine and […] are the sodium concentrations in the urine and the plasma, respectively, and Creatinineplasma and Creatinineurine are the creatinine concentrations in the plasma and the urine, respectively. The fractional excretion of sodium is the sodium excretion divided by the glomerular filtration rate (GFR), the GFR being estimated by the creatinine clearance.

[10] = 0.2 mg/kg/day in the morning for 28 days, dogs with congestive heart failure; cited from earlier work
[11] = urinary sodium clearance in healthy female Beagle dogs; assay type: in vivo
Protocol: Several criteria were evaluated in order to determine the efficacy of this dosage: • urine volume • water consumption • urinary sodium clearance • urinary potassium clearance • osmolar clearance • free-water clearance • urinary fraction excretion of sodium • urinary fraction excretion of potassium. […] The following measurements are carried out: • →urine: volume, pH, creatinine, osmolarity, sodium, potassium; • →plasma: sodium, potassium, urea, aldosterone. In this experiment, torasemide is tested at two single doses: 0.05 mg/kg or 0.5 mg/kg for a daily administration for three weeks. The continuous administration of diuretics causes a net deficit of sodium ions in the body, but renal compensation mechanisms adjust sodium excretion in line with sodium intake. This phenomenon is known as “diuretic braking”. […] In the experimental studies described above, carried out on healthy dogs, the modification of urinary sodium excretion by torasemide is evaluated by calculating urinary sodium clearance according to the following equation: Urinary sodium concentration×total urine volume/plasma sodium concentration

[12] = plasma aldosterone concentration (innocuousness); assay type: in vivo, female Beagle dogs; details: FIG. 8
[13] = urinary potassium clearance in treated healthy dogs; assay type: in vivo, female Beagle dogs; details: first day of treatment, low-dose torasemide compared with other treatments; FIG. 5
Protocol: Several criteria were evaluated in order to determine the efficacy of this dosage: • urine volume • water consumption • urinary sodium clearance • urinary potassium clearance • osmolar clearance • free-water clearance • urinary fraction excretion of sodium • urinary fraction excretion of potassium. […] The following measurements are carried out: • →urine: volume, pH, creatinine, osmolarity, sodium, potassium; • →plasma: sodium, potassium, urea, aldosterone. The excretion of potassium ions in the urine of the treated dogs was measured over a period of 24 hours, and is presented in FIG. 5.

[14] = high dose of torasemide (0.5 mg/kg/day), D18 and D28
[15] = low dose of torasemide (0.05 mg/kg/day)

SMILES: NS(=O)(=O)c1cc(C(=O)O)c(NCc2ccco2)cc1Cl [furosemide]
- diuretic resistance [1]: develop “diuretic resistance”
- time after administration at which the diuretic effect decreases ([2]; furosemide): 6 h
- time after administration at which the diuretic effect appears ([2]; torasemide 0.2 mg/kg): approximately 1 hours
- clinical state of the disease [3]: maintain the disease in a stable state
- water consumption over a period of 24 h ([4]; furosemide 5 mg/kg/day, especially D18 and D28): clear increase
- dose-effect relationship for diuretic effect and ion secretion [5]: relationship between the dose administered and the size of the diuretic effect and of the ion secretion
- urine volume ([6]; furosemide 5 mg/kg/day, from first day (D7), maintained over three weeks): clear increase

SMILES: Cc1cccc(Nc2ccncc2S(=O)(=O)NC(=O)NC(C)C)c1 [torasemide, N-[(isopropyl-amino)carbonyl]-4-[(3-methylphenyl)amino]pyridine-3-sulfonamide]
- diuretic resistance [1]: this resistance does not occur
- plasma creatinine concentrations [1]: increase in plasma creatinine concentrations
- plasma creatinine concentration ([7]; whatever the day of the sample): no effect
- creatinine clearance ([7]; FIG. 6): no effect
- potassium excretion in the urine ([2]; sick dogs, after 7 days, compared with furosemide): less than that observed for the dogs treated with furosemide
- persistence of the diuretic effect ([2]; torasemide 0.2 mg/kg): 12 h
- plasma urea concentration [8, 14]: increase
- increase in plasma urea concentration [8, 15]: not observed
- fractional excretion of sodium [9]: in agreement with those obtained by directly measuring the urinary sodium clearance
- clinical state of the disease [3]: maintain the disease in a stable state
- diuretic effect compared with furosemide ([3]; torasemide 0.5 mg/kg/day vs furosemide 5.13 mg/kg/day): better diuretic effect
- potassium excretion in the urine [10]: increased
- sodium excretion [10]: not increased
- diuretic braking effect ([11]; dogs in good health, single dose of 0.5 mg/kg): occurs
- net effect over the course of 24 hours on urinary sodium clearance ([11]; repeated administrations, high dose of torasemide 0.5 mg/kg/day, FIG. 2): no net effect
- effect on urinary sodium clearance ([11]; repeated administrations, low dose of torasemide 0.05 mg/kg, D7, D18, D28, FIG. 2): effect that was clearly visible
- overall effect on sodium clearance over the course of 24 hours ([11]; single dose, low dose 0.05 mg/kg compared with high dose 0.5 mg/kg, FIG. 1): higher than the overall effect of the high dose of torasemide (0.5 mg/kg)
- plasma aldosterone concentration [12, 14]: increase
- increase in plasma aldosterone concentration [12, 15]: not observed
- water consumption over a period of 24 h ([4]; torasemide 0.05 mg/kg/day): only a small change
- water consumption over a period of 24 h ([4]; torasemide 0.5 mg/kg/day, especially D18 and D28): clear increase
- dose-effect relationship for diuretic effect and ion secretion [5]: relationship between the dose administered and the size of the diuretic effect and of the ion secretion
- urine volume ([6]; torasemide 0.05 mg/kg/day, D7, D18, D28): do not show any change
- urine volume ([6]; torasemide 0.5 mg/kg/day, from first day (D7), maintained over three weeks): clear increase
- effect on potassium ion excretion in the urine [13]: lower than with the other treatments
